What was measured:
surinam grass = test: Test B pre/postemergence surinam grass; format: in vivo, Brachiaria decumbens
Procedure, shortened: (§1)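 Herbicidal effect was estimated by eye on a ten-point control scale after plants spent twelve to sixteen days in a greenhouse following soil or foliar treatment. Foliar sprays targeted plants at one to four leaves; all doses were formulated in a non-phytotoxic solvent with surfactant.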

pigweed = test: Test B pre/postemergence pigweed; format: in vivo, Amaranthus retroflexus
Procedure, shortened: as §1

rape = test: Test B pre/postemergence rape; format: in vivo, Brassica napus
Procedure, shortened: as §1

velvetleaf = test: Test B pre/postemergence velvetleaf; format: in vivo, Abutilon theophrasti
Procedure, shortened: as §1

morningglory = test: Test B pre/postemergence morningglory; format: in vivo, Ipomoea hederacea
Procedure, shortened: as §1

cocklebur = test: Test B pre/postemergence cocklebur; format: in vivo, Xanthium strumarium
Procedure, shortened: as §1

purple nutsedge = test: Test B pre/postemergence purple nutsedge; format: in vivo, Cyperus rotundus
Procedure, shortened: as §1

soybean = test: Test B pre/postemergence soybean; format: in vivo, Glycine max
Procedure, shortened: as §1

corn = test: Test B pre/postemergence corn; format: in vivo, Zea mays
Procedure, shortened: as §1

giant foxtail = test: Test B pre/postemergence giant foxtail; format: in vivo, Setaria faberii
Procedure, shortened: as §1

wheat = test: Test B pre/postemergence wheat; format: in vivo, Triticum aestivum
Procedure, shortened: as §1

blackgrass = test: Test B pre/postemergence blackgrass; format: in vivo, Alopecurus myosuroides
Procedure, shortened: as §1

bedstraw = test: Test B pre/postemergence bedstraw; format: in vivo, Galium aparine; details: Postemergence, Rate 250 g/ha; scale of 0 to 10, 0 is no effect, 10 is complete control
Procedure, shortened: as §1

wild oat = test: Test B pre/postemergence wild oat; format: in vivo, Avena fatua
Procedure, shortened: as §1

crabgrass = test: Test B pre/postemergence crabgrass; format: in vivo, Digitaria sanguinalis
Procedure, shortened: as §1

[1] = Postemergence, Rate 62 g/ha, scale 0 to 10, 0 is no effect, 10 is complete control
[2] = Postemergence, Rate 125 g/ha, scale of 0 to 10 where 0 is no effect and 10 is complete control
[3] = Postemergence, Rate 250 g/ha, scale of 0 to 10, 0 is no effect, 10 is complete control
[4] = Preemergence, Rate 62 g/ha, scale of 0 to 10 where 0 is no effect and 10 is complete control
[5] = Preemergence, Rate 125 g/ha, scale of 0 to 10 where 0 is no effect and 10 is complete control
[6] = Preemergence, Rate 250 g/ha, scale 0 to 10 (0 no effect, 10 complete control)
[7] = Preemergence, Rate 500 g/ha, scale of 0 to 10 where 0 is no effect and 10 is complete control
[8] = Rate 500 g/ha, Postemergence, scale 0 to 10, 0 is no effect, 10 is complete control

C#CC(C)n1c(=O)on(C(=O)N(c2ccc(Cl)cc2)C(C)C)c1=O (racemic) [Compound 658]
8: Plant response rating, B. signalgrass (surinam grass; [6]) | Plant response rating, B. signalgrass (surinam grass; [7]) | Plant response rating, Rape (rape; [7]) | Plant response rating, Crabgrass (crabgrass; [6])
7: Redroot pigweed plant response rating (pigweed; [8]) | Plant response rating, Morningglory (morningglory; [1]) | Morningglory plant response rating (morningglory; [2]) | Morningglory plant response rating (morningglory; [3]) | Giant foxtail plant response rating (giant foxtail; [3]) | Blackgrass plant response rating (blackgrass; [5]) | Plant response rating, Blackgrass (blackgrass; [6]) | Plant response rating, Blackgrass (blackgrass; [7]) | Blackgrass plant response rating (blackgrass; [8]) | Crabgrass plant response rating (crabgrass; [5])
4: Soybean plant response rating (soybean; [2]) | Soybean plant response rating (soybean; [8]) | Plant response rating, Wild oats (wild oat; [7])
5: Rape plant response rating (rape; [5]) | Plant response rating, Rape (rape; [6]) | Plant response rating, Velvetleaf (velvetleaf; [7]) | Cocklebur plant response rating (cocklebur; [8])
6: Plant response rating, Redroot pigweed (pigweed; [1]) | Redroot pigweed plant response rating (pigweed; [2]) | Velvetleaf plant response rating (velvetleaf; [8]) | Giant foxtail plant response rating (giant foxtail; [8]) | Blackgrass plant response rating (blackgrass; [3])
10: Plant response rating, Redroot pigweed (pigweed; [7]) | Morningglory plant response rating (morningglory; [8]) | Plant response rating, Giant foxtail (giant foxtail; [7])
0: Plant response rating, B. signalgrass (surinam grass; [1]) | Plant response rating, B. signalgrass (surinam grass; [2]) | B. signalgrass plant response rating (surinam grass; [3]) | B. signalgrass plant response rating (surinam grass; [4]) | B. signalgrass plant response rating (surinam grass; [5]) | B. signalgrass plant response rating (surinam grass; [8]) | Plant response rating, Rape (rape; [1]) | Rape plant response rating (rape; [2]) | Plant response rating, Velvetleaf (velvetleaf; [1]) | Velvetleaf plant response rating (velvetleaf; [2]) | Velvetleaf plant response rating (velvetleaf; [4]) | Velvetleaf plant response rating (velvetleaf; [5]) | Morningglory plant response rating (morningglory; [4]) | Morningglory plant response rating (morningglory; [5]) | Plant response rating, Morningglory (morningglory; [6]) | Plant response rating, Morningglory (morningglory; [7]) | Plant response rating, Cocklebur (cocklebur; [1]) | Cocklebur plant response rating (cocklebur; [2]) | Cocklebur plant response rating (cocklebur; [4]) | Cocklebur plant response rating (cocklebur; [5]) | Plant response rating, Cocklebur (cocklebur; [6]) | Plant response rating, Cocklebur (cocklebur; [7]) | Plant response rating, Nutsedge (purple nutsedge; [1]) | Nutsedge plant response rating (purple nutsedge; [2]) | Nutsedge plant response rating (purple nutsedge; [4]) | Nutsedge plant response rating (purple nutsedge; [5]) | Plant response rating, Nutsedge (purple nutsedge; [6]) | Soybean plant response rating (soybean; [4]) | Soybean plant response rating (soybean; [5]) | Plant response rating, Soybean (soybean; [6]) | Plant response rating, Corn (corn; [1]) | Corn plant response rating (corn; [2]) | Corn plant response rating (corn; [3]) | Corn plant response rating (corn; [4]) | Corn plant response rating (corn; [5]) | Corn plant response rating (corn; [8]) | Plant response rating, Giant foxtail (giant foxtail; [1]) | Plant response rating, Wheat (wheat; [1]) | Wheat plant response rating (wheat; [2]) | Wheat plant response rating (wheat; [4]) | Wheat plant response rating (wheat; [5]) | Plant response rating, Wheat (wheat; [6]) | Wheat plant response rating (wheat; [8]) | Plant response rating, Blackgrass (blackgrass; [1]) | Bedstraw plant response rating (bedstraw) | Wild oats plant response rating (wild oat; [4]) | Plant response rating, Crabgrass (crabgrass; [1])
3: Rape plant response rating (rape; [8]) | Plant response rating, Velvetleaf (velvetleaf; [6]) | Plant response rating, Soybean (soybean; [7]) | Giant foxtail plant response rating (giant foxtail; [2]) | Plant response rating, Wheat (wheat; [7]) | Blackgrass plant response rating (blackgrass; [2]) | Blackgrass plant response rating (blackgrass; [4]) | Plant response rating, Wild oats (wild oat; [6]) | Crabgrass plant response rating (crabgrass; [4])
9: Redroot pigweed plant response rating (pigweed; [5]) | Plant response rating, Redroot pigweed (pigweed; [6]) | Giant foxtail plant response rating (giant foxtail; [4]) | Giant foxtail plant response rating (giant foxtail; [5]) | Plant response rating, Giant foxtail (giant foxtail; [6]) | Plant response rating, Crabgrass (crabgrass; [7])
2: Redroot pigweed plant response rating (pigweed; [4]) | Rape plant response rating (rape; [4]) | Cocklebur plant response rating (cocklebur; [3]) | Plant response rating, Nutsedge (purple nutsedge; [7]) | Nutsedge plant response rating (purple nutsedge; [8]) | Plant response rating, Soybean (soybean; [1]) | Plant response rating, Corn (corn; [6]) | Plant response rating, Corn (corn; [7]) | Wild oats plant response rating (wild oat; [5]) | Wild oats plant response rating (wild oat; [8]) | Crabgrass plant response rating (crabgrass; [2]) | Crabgrass plant response rating (crabgrass; [3])
1: Plant response rating, Wild oats (wild oat; [1]) | Wild oats plant response rating (wild oat; [2])

From patent US6737383B1, “Herbicidal oxadiazolidines” (priority 1999, dated 2004)
